Measured values from patent US20150204851A1, “METHODS FOR IDENTIFYING DIABETES DRUGS” (Metanomics Health GmbH, priority 2012, published 2015).
Where a name gives a salt, the structure may show the parent alone.

Tests used:
[1] = Mehta 2009; cited from earlier work
[2] = system: glyoxylate; test: Plasma glyoxylate in rats dosed 28 days by gavage, GC-MS metabolite profiling; assay type: in vivo, rat; conditions: for Ratio treatment/control, plasma glyoxylate: gavage once daily
Protocol: Two groups of each 5 male and female rats was dosed once daily with the indicated compounds with a different dose per group (see below) over 28 days.
Each dose group in the studies consisted of five rats per sex. Additional groups of each 15 male and 15 female animals served as controls. Before starting the treatment period, animals, which were 62-64 days old when supplied, were acclimatized to the housing and environmental conditions for 7 days. All animals of the animal population were kept under the same constant temerature (20-24±3° C.) and the same constant humidity (30-70%). The animals of the animal population were fed ad libitum. The food to be used was essentially free of chemical or microbial contaminants. Drinking water was also offered ad libitum. Accordingly, the water was free of chemical and microbial contaminants as laid down in the European Drinking Water Directive 98/83/EG. The illumination period was 12 hours light followed by 12 hours darkness (12 hours light, from 6:00 to 18:00, and 12 hours darkness, from 18:00 to 6:00). The studies were performed in an AAALAC-approved laboratory in accordance with the German Animal Welfare Act and the European Council Directive 86/609/EE. The test system was arranged according to the OECD 407 guideline for the testing of chemicals for repeated dose 28-day oral toxicity study in rodents. The test substance was dosed and administered as follows:
Metformin hydrochloride was administered by gavage (high dose group at 1 g/kg body weight, low dose group at 0.2 g/kg body weight), in drinking water containing 0.5% Carboxymethyl cellulose (Tylose CB30000) (administration volume: 10 ml/kg body weight).
In the morning of day 7, 14, and 28, blood was taken from the retroorbital venous plexus from fasted anaesthetized animals. From each animal, 1 ml of blood was collected with EDTA as anticoagulant. The samples were centrifuged for generation of plasma. All plasma samples were covered with a N2 atmosphere and then stored at −80° C. until analysis.
For mass spectrometry-based metabolite profiling analyses plasma samples were extracted and a polar and a non-polar (lipid) fraction was obtained. For GC-MS analysis, the non-polar fraction was treated with methanol under acidic conditions to yield the fatty acid methyl esters. Both fractions were further derivatized with O-methyl-hydroxyamine hydrochloride and pyridine to convert Oxo-groups to O-methyloximes and subsequently with a silylating agent before analysis.
Following comprehensive analytical validation steps, the data for each analyte were normalized against data from pool samples. These samples were run in parallel through the whole process to account for process variability. The significance of treatment group values specific for sex, treatment duration and metabolite was determined by comparing means of the treated groups to the means of the respective untreated control groups using WELCH-test and quantified with treatment ratios versus control and p-values.

[3] = system: glyoxylate; test: Glyoxylate level in C. elegans after treatment, GC-MS; assay type: in vivo, Caenorhabditis elegans; conditions: for Effect on native/endogenous glyoxylate levels in C. elegans: single treatment: 50 mM metformin or 20 mM glyoxylate; for Ratio of glyoxylate concentrations in C. elegans, treatment/control: wild type on growth medium, 20 mM glyoxylate and/or 50 mM metformin, normalized to median of control
Protocol: Nematodes were harvested and extensively washed with buffer and the resulting pellet was disrupted using glass beats in combination with mechanical force. Samples were extracted with methyl-tert-butylether, methanol and extraction buffer and sonicated for 15 minutes. 50% of a mixture of water/methanol (3:1) was added, vigorously mixed and centrifuged. The polar phase was evaporated to dryness. After addition of water and a mixture of ethanol and dichlormethan, the sample was fractioned into an aqueous, polar phase and an organic, lipophilic phase. 13C-glyoxylate was added as internal standard and the extracts were derivatized in the following way: The methoximation of the carbonyl groups was carried out by reaction with methoxyamine hydrochloride (20 mg/mL in pyridine, 50 μL for 1.5 hours at 60° C.) in a tightly sealed vessel. Finally, the derivatization with 50 μL of N-methyl-N-(trimethylsilyl)-2,2,2-trifluoroacetamide (MSTFA) was carried out for 30 minutes at 60° C., again in the tightly sealed vessel. The final volume before injection into the GC was 100 μL. The GC-MS systems consist of an Agilent 6890 GC coupled to an Agilent 5973 MSD. Autosamplers were CompiPal or GCPaI from CTC.
For the analysis a usual commercial capillary separation column (30 m×0.25 mm×0.5 μm) with an arylene/poly-methyl-siloxane stationary phases was used (for example: DB-XLB, Agilent Technologies). 0.5 μL of the final volume was injected splitless and the oven temperature program was started at 70° C. and ended at 320° C. with different heating rates starting with low rates in order to achieve a sufficient chromatographic separation and number of scans for glyoxylate analysis and changing to a high heating rate after glyoxylate elution. Furthermore usual GC-MS standard conditions, for example constant flow with nominal 1 to 1.7 mL/min. and helium as the mobile phase gas and standard tune conditions were applied. Ionization was done by electron impact with 70 eV, scanning 2 characteristic mass fragments of the glyoxylate derivate and its internal standard, respectively within an appropriate time window. Scan rate was 25 scans/sec. Glyoxylate values were normalized to Total Ion Count of each sample to adjust individual deviation of sample volume. Furthermore, the data were normalized to the median of the control samples leading to ratios to control.
We tested the hypothesis that metformin suppresses glyoxylate concentration in in vivo experiments with the model worm Caenorhabditis elegans, by means of its treatment with glyoxylate and metformin separately and in combination of glyoxylate plus metformin.
The experiment included four treatment groups:
1) C. elegans, wild type (wt)—on growth medium (no treatment, control).
2) C. elegans, wt—on growth medium plus 50 mM metformin (methodology for Metformin application and doses as described in Onken & Driscoll (Onken B, Driscoll M (2010) Metformin induces a dietary restriction-like state and the oxidative stress response to extend C. elegans healthspan via AMPK, LKB1, and SKN-1. PLoS ONE 5(1): e8758.).
3) C. elegans, wt—on growth medium plus 20 mM glyoxylate.
4) C. elegans, wt—on growth medium plus 20 mM glyoxylate and 50 mM metformin.
From the GC-MS metabolite profiles, total ion count (TIC) as a measure of the absolute intensity value was calculated for each batch. Measured glyoxylate levels were then volume-normalized, using TICs.

[4] = system: C. elegans; conditions: in vivo; cited from earlier work
[5] = system: glyoxylate; conditions: cultured human cells; Berman 2005; cited from earlier work

CC(=O)N[C@@H](CS)C(=O)O [N-acetyl-cysteine]
Order of effectiveness for glyoxal trapping, thiol-containing drugs [1]: penicillamine>cysteine>N-acetyl-cysteine

CN(C)C(=N)N=C(N)N [Metformin hydrochloride]
Ratio treatment/control, plasma glyoxylate ([2]; High Dose 1 g/kg body weight, female rats, day 7 (f7)): 0.82 | Ratio treatment/control, plasma glyoxylate ([2]; High Dose 1 g/kg body weight, female rats, day 14 (f14)): 0.58 | Ratio treatment/control, plasma glyoxylate ([2]; High Dose 1 g/kg body weight, female rats, day 28 (f28)): 0.52 | Ratio treatment/control, plasma glyoxylate ([2]; High Dose 1 g/kg body weight, male rats, day 7 (m7)): 0.22 | Ratio treatment/control, plasma glyoxylate ([2]; High Dose 1 g/kg body weight, male rats, day 14 (m14)): 0.29 | Ratio treatment/control, plasma glyoxylate ([2]; High Dose 1 g/kg body weight, male rats, day 28 (m28)): 0.58 | Ratio treatment/control, plasma glyoxylate ([2]; Low Dose 0.2 g/kg body weight, female rats, day 7 (f7)): 1.01 | Ratio treatment/control, plasma glyoxylate ([2]; Low Dose 0.2 g/kg body weight, female rats, day 14 (f14)): 0.72 | Ratio treatment/control, plasma glyoxylate ([2]; Low Dose 0.2 g/kg body weight, female rats, day 28 (f28)): 0.64 | Ratio treatment/control, plasma glyoxylate ([2]; Low Dose 0.2 g/kg body weight, male rats, day 7 (m7)): 0.59 | Ratio treatment/control, plasma glyoxylate ([2]; Low Dose 0.2 g/kg body weight, male rats, day 14 (m14)): 0.65 | Ratio treatment/control, plasma glyoxylate ([2]; Low Dose 0.2 g/kg body weight, male rats, day 28 (m28)): 0.44

CN(C)C(=N)N=C(N)N [Metformin, metformin]
Effect on glyoxylate concentrations in a rat model system ([2]; summary of Table 2): strongly reducing glyoxylate concentrations | Effect on glyoxylate-induced increase of endogenous glyoxylate in C. elegans ([3]; 50 mM metformin simultaneously to treatment with 20 mM glyoxylate): restored the native glyoxylate level | Effect on native/endogenous glyoxylate levels in C. elegans [3]: significantly decreased native glyoxylate levels | Ratio of glyoxylate concentrations in C. elegans, treatment/control [3]: 0.88 | Order of effectiveness for glyoxal trapping, amine-containing drugs [1]: aminoguanidine>>pyridoxamine>metformin | Effect on lifespan in C. elegans [4]: promote lifespan in C. elegans

N=C(N)NN [Aminoguanidine, aminoguanidine]
Scavenging of glyoxylate, diverting it from oxalate synthesis [5]: demonstrated to scavenge glyoxylate | Order of effectiveness for glyoxal trapping, amine-containing drugs [1]: aminoguanidine>>pyridoxamine>metformin

O=CC(=O)O [Glyoxylate, glyoxylate]
Effect on native/endogenous glyoxylate levels in C. elegans [3]: significant increase of endogenous glyoxylate | Ratio of glyoxylate concentrations in C. elegans, treatment/control [3]: 1.81

CC(C)(S)[C@@H](N)C(=O)O [penicillamine]
Order of effectiveness for glyoxal trapping, thiol-containing drugs [1]: penicillamine>cysteine>N-acetyl-cysteine

N[C@@H](CS)C(=O)O [cysteine]
Order of effectiveness for glyoxal trapping, thiol-containing drugs [1]: penicillamine>cysteine>N-acetyl-cysteine
